What was measured:
Assay in all cases: relative viability (nuclei count vs DMSO), 5 days (fraction); higher = more cells survive
TPCA-1 + Navitoclax = compound: C1=CC(=CC=C1C2=CC(=C(S2)NC(=O)N)C(=O)N)F [TPCA-1] + CC1(C)CCC(c2ccc(Cl)cc2)=C(CN2CCN(c3ccc(C(=O)NS(=O)(=O)c4ccc(N[C@H](CCN5CCOCC5)CSc5ccccc5)c(S(=O)(=O)C(F)(F)F)c4)cc3)CC2)C1 [Navitoclax] (partner 0.5 µM)
Procedure, shortened: (§1)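 Nuclei were stained with Hoechst during a one-step fixation (final 0.05% Triton X-100, 1% formaldehyde, 1 ug/ml Hoechst) carried out 5 days after dosing, then counted on 4× images. The cells, lung cancer lines in 1536-well plates, had been dosed by pin tool the day after seeding with one drug alone or a fixed anchor-drug dose plus five library-drug doses (not always all listed) in √10 steps. Relative viability is the nuclei count in treated wells divided by that in vehicle wells, and each value is the median of duplicate plates.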

[1] = compound: C1/C(=C\C2=CC=CS2)/C(=O)/C(=C/C3=CC=CS3)/C1 + CC1(C)CCC(c2ccc(Cl)cc2)=C(CN2CCN(c3ccc(C(=O)NS(=O)(=O)c4ccc(N[C@H](CCN5CCOCC5)CSc5ccccc5)c(S(=O)(=O)C(F)(F)F)c4)cc3)CC2)C1 [Navitoclax] (partner 0.5 µM)
Procedure, shortened: as §1

TPCA-1 + Palbociclib = compound: C1=CC(=CC=C1C2=CC(=C(S2)NC(=O)N)C(=O)N)F [TPCA-1] + CC(=O)c1c(C)c2cnc(Nc3ccc(N4CCNCC4)cn3)nc2n(C2CCCC2)c1=O [Palbociclib] (partner 0.5 µM)
Procedure, shortened: as §1

[2] = compound: C[C@]12O[C@H](C[C@]1(O)CO)n1c3ccccc3c3c4c(c5c6ccccc6n2c5c31)CNC4=O [Lestaurtinib] + Nc1nc2[nH]cc(CCc3ccc(C(=O)N[C@@H](CCC(=O)O)C(=O)O)cc3)c2c(=O)[nH]1 [Pemetrexed] (partner 0.2 µM)
Procedure, shortened: as §1

Row | Cell Line | relative viability (TPCA-1 + Navitoclax; first compound 0.04 µM) | relative viability (TPCA-1 + Navitoclax; first compound 0.1265 µM) | relative viability (TPCA-1 + Navitoclax; first compound 0.4 µM) | relative viability (TPCA-1 + Navitoclax; first compound 1.265 µM) | relative viability (TPCA-1 + Navitoclax; first compound 4 µM) | relative viability ([1]; first compound 0.2 µM) | relative viability ([1]; first compound 0.6325 µM) | relative viability ([1]; first compound 2 µM) | relative viability ([1]; first compound 6.325 µM) | relative viability ([1]; first compound 20 µM) | relative viability (TPCA-1 + Palbociclib; first compound 0.04 µM) | relative viability (TPCA-1 + Palbociclib; first compound 0.1265 µM) | relative viability (TPCA-1 + Palbociclib; first compound 0.4 µM) | relative viability (TPCA-1 + Palbociclib; first compound 1.265 µM) | relative viability (TPCA-1 + Palbociclib; first compound 4 µM) | relative viability ([2]; first compound 0.005 µM) | relative viability ([2]; first compound 0.01581 µM) | relative viability ([2]; first compound 0.05 µM) | relative viability ([2]; first compound 0.1581 µM) | relative viability ([2]; first compound 0.5 µM)
1 | HCC-44 | 0.973 | 0.983 | 1.04 | 0.927 | 0.915 | 0.903 | 0.987 | 0.935 | 0.832 | 0.895 | 0.987 | 0.902 | 0.995 | 0.995 | 1.03 | 0.635 | 0.685 | 0.491 | 0.648 | 0.377
2 | HCC-78 | 0.973 | 0.653 | 0.726 | 0.652 | 0.582 | 0.81 | 0.786 | 0.82 | 0.682 | 0.782 | 0.464 | 0.455 | 0.492 | 0.48 | 0.387 | 0.9 | 0.918 | 0.851 | 1 | 0.903
3 | COR-L23 | 1.28 | 0.953 | 1.03 | 1.03 | 0.733 | 1.06 | 1.09 | 1.02 | 0.864 | 0.967 | 0.316 | 0.289 | 0.272 | 0.206 | 0.169 | 0.209 | 0.214 | 0.195 | 0.194 | 0.202
4 | NCI-H1993 | 1.01 |  | 0.794 | 0.756 | 0.809 | 1.04 | 0.877 | 0.971 | 0.693 | 0.818 | 0.726 | 0.531 | 0.645 | 0.717 | 0.534 | 0.581 | 0.657 | 0.644 | 0.411 | 0.497
5 | NCI-H2405 | 0.971 | 0.691 | 0.964 |  | 0.714 | 1.23 | 0.892 | 1.15 | 0.766 | 1.08 | 0.565 | 0.507 | 0.525 | 0.446 | 0.478 | 1.01 | 1.25 | 1.03 | 0.887 | 0.374
6 | NCI-H2126 | 0.866 | 0.791 | 0.899 | 0.812 | 0.767 | 0.941 | 0.79 | 0.832 | 0.628 | 0.845 | 0.388 | 0.382 | 0.364 | 0.355 | 0.3 | 0.757 | 0.685 | 0.66 | 0.666 | 0.476
7 | NCI-H1944 | 1.07 | 0.949 | 1.06 | 0.921 | 0.823 | 1.14 | 0.966 | 1.08 | 0.899 | 0.992 | 0.354 | 0.336 | 0.293 | 0.319 | 0.225 | 0.663 | 0.595 | 0.492 | 0.409 | 0.25
8 | NCI-H1734 | 0.893 | 0.759 | 0.871 | 0.779 | 0.697 | 0.837 | 0.908 | 0.914 | 0.812 | 0.866 | 0.352 | 0.313 | 0.388 | 0.363 | 0.307 | 0.439 | 0.392 | 0.402 | 0.397 | 0.178
9 | A-427 | 0.945 | 0.898 | 0.997 | 0.899 | 0.93 | 1.03 | 1.02 | 0.982 | 0.852 | 0.92 | 0.555 | 0.507 | 0.545 | 0.561 | 0.553 | 0.865 | 1.14 | 0.925 | 0.503 | 0.275
10 | RERF-LC-KJ | 0.967 | 0.883 | 1.06 | 0.866 | 0.766 | 0.949 | 0.995 | 0.965 | 0.787 | 0.86 | 1.12 | 1.04 | 1.04 | 1.03 | 0.892 | 0.482 | 0.496 | 0.417 | 0.455 | 0.351
11 | LCLC-97TM1 | 0.394 | 0.494 | 0.446 | 0.259 | 0.238 | 0.345 | 0.337 | 0.367 | 0.297 | 0.261 | 0.231 | 0.2 | 0.199 | 0.232 | 0.206 |  | 0.183 | 0.149 | 0.146 | 0.132
12 | BEN | 0.0874 | 0.0533 | 0.0644 | 0.0802 | 0.0674 | 0.0742 | 0.059 | 0.368 | 0.0733 | 0.0554 | 0.474 | 0.468 | 0.531 | 0.577 | 0.422 | 0.782 | 0.841 | 0.663 | 0.555 | 0.358
13 | NCI-H2023 | 1.14 | 0.98 | 1.04 | 0.938 | 0.912 | 1.08 | 0.991 | 1.03 | 0.971 | 0.94 | 0.366 | 0.394 | 0.444 | 0.37 | 0.165 | 0.292 | 0.285 | 0.201 | 0.153 | 0.0898
14 | LC-2-ad | 0.361 | 0.377 | 0.414 | 0.357 | 0.11 | 0.451 | 0.451 | 0.399 | 0.406 | 0.49 | 0.467 | 0.465 | 0.49 | 0.489 | 0.421 | 0.258 | 0.277 | 0.252 | 0.258 | 0.186
15 | NCI-H647 | 1.1 | 0.9 | 1.22 | 0.67 | 0.706 | 1.15 | 1.15 | 1.1 | 1.01 | 1.17 | 0.47 | 0.4 | 0.342 | 0.38 | 0.188 | 0.187 | 0.162 | 0.183 | 0.119 | 0.064
